The text below walks through data of US5550139A, “Serine protease inhibitors” (The Wichita State University, priority 1994, dated 1996).

Each structure is given as a SMILES string.

Series [1] concerns the target T1, Proteinase-3 (Homo sapiens, UniProt P24158).
T1 sequence (P24158 28-248 limits assumed): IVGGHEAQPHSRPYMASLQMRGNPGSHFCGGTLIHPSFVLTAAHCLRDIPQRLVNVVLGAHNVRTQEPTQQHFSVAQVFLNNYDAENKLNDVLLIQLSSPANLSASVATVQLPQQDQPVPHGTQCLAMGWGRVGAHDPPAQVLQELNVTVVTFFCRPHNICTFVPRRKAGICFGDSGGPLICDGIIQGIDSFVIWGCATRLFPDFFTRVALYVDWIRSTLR
As to the kind of experiment: Proteinase-3 inhibition. It is filed as biochemical. The arrangement: % Proteinase-3 Inhibition: concentration or dose not given beside the values. As to conditions: Table 7. From the text: (§1) An in vitro assay can be used to screen compounds of the invention for the ability to reduce or inhibit serine proteinase activity. The human leukocyte elastase (HLE), cathepsin G (Cath G), and proteinase-3 assays have each been described (Groutas et al., J. Med. Chem. 32:1607-1611, 1989; Groutas et al., Arch. Biochem. Biophys. 294:144-146, 1992; Kao et al., J. Clin. Invest. 82:1963-1973, 1988, each incorporated by reference herein). The pseudo first-order inactivation rate constants (kobs) were obtained from plots of ln(vt /vo) vs t, and expressed in terms of the apparent second-order inactivation rate constant, kobs /[I] M^-1 s^-1 (Tables 1-7). Tables 1-7 disclose the activity of preferred compounds of the invention as inhibitors of HLE and Cath G. Table 7 discloses the activity of Compounds 4A (C) and 3E (D) as inhibitors of Proteinase-3 activity. Compounds (A) and (B) have been disclosed previously (Groutas et al., Bioorganic and Med. Chem. 1(4):273-277, 1993; Groutas et al., J. Med. Chem. 36:3178, 1993).

The test system of series [2] is neutrophil diapedesis (peritonitis). The series is described as follows: Inhibition of neutrophil diapedesis after experimentally induced (starch) peritonitis. It is filed as in vivo, rat. As to conditions: 8 mg/kg i.v. single dose; for Total Number of Cells Lavaged at 4 Hours, Lymphocytes / Total Number of Cells Lavaged at 4 Hours, Macrophages Monocytes / Total Number of Cells Lavaged at 4 Hours, Neutrophils / Total Number of Cells Lavaged at 4 Hours, Total Cells / Abdominal Lavage Cell Distribution, Lymphocytes / Abdominal Lavage Cell Distribution, Macrophages Monocytes / Abdominal Lavage Cell Distribution, Neutrophils: Experiment 2, starch; for Abdominal Lavage Cell Distribution, Lymphocytes / Abdominal Lavage Cell Distribution, Macrophages Monocytes / Abdominal Lavage Cell Distribution, Neutrophils: 4 hours; for effect on neutrophil diapedesis (in words): rat. How it is done: (§2) Each compound (A-D) was individually injected into the tail vein of a rat in a single dose (8 mg/kg). After injection, peritonitis was induced in the rat by an IP (intraperitoneal) injection of 1 ml of a 0.1% soluble starch solution. After 4 hours, the peritoneal cavity was lavaged with saline in order to determine the number and type of cells responding to peritonitis. Cell numbers were determined by a Coulter counter and cell type (e.g. lymphocytes, neutrophils, macrophages and monocytes) by standard Cytospin and Giemsa staining. Cell number and type was evaluated after IP injection of saline (negative control, no inflammation), starch (positive control, inflammation) or starch with IV injection of an inhibitor (experimental, inflammation). Inhibitors were dissolved in DMSO prior to administration.

Series [3] deals with T2, human leukocyte elastase (HLE) (Homo sapiens, UniProt P08246).
T2 construct: purchased Elastin Products Co., Owensville, Mo
T2 sequence (P08246 30-247 limits assumed): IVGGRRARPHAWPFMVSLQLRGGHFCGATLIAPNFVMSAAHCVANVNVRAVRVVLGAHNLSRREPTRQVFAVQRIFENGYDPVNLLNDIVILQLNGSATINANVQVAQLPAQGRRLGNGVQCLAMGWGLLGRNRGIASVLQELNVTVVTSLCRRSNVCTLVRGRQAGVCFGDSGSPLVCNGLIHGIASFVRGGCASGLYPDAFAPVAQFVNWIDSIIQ
The series is described as follows: Inactivation of human leukocyte elastase (kobs/[I]). It is filed as biochemical.
Text: as §1
XII. Materials: Human leukocyte elastase was purchased from Elastin Products Co., Owensville, Mo.
(§3) Human leukocyte cathepsin G was obtained from Athens Research and Technology, Athens, Ga. Methoxysuccinyl Ala-Ala-Pro-Val p-nitroanilide and methoxysuccinyl Ala-Ala-Pro-Phe p-nitroanilide were purchased from Sigma Chemicals Co., St. Louis, Mo. Baker-analyzed 60-200 mesh silica gel was used for flash chromatography.

Series [4] deals with rat. As to the kind of experiment: Overt toxicity in injected rats. The class given is in vivo. The note with it: rat peritonitis test, 8 mg/kg i.v. single dose. How it is done:
Inhibitor A or B were each injected twice daily into the tail vein of a rat (8 mg/kg) over a period of three days. Inflammation was not induced in these rats. […] WBC=white blood cells; PMN=polymorphonuclear leukocytes; The elastase assay has been disclosed above.
as §2

In series [5] the target is T3, cathepsin G (Cath G) (Homo sapiens, UniProt P08311).
T3 construct: purchased Athens Research and Technology, Athens, Ga
T3 sequence (P08311 21-244 limits assumed): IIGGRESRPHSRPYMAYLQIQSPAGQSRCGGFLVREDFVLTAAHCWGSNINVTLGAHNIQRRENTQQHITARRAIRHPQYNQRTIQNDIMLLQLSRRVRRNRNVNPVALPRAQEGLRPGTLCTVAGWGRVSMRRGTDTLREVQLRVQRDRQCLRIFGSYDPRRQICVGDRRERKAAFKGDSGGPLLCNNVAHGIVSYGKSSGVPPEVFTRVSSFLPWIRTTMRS
The series is described as follows: Inactivation of human leukocyte cathepsin G (kobs/[I]). As to conditions: for time-dependent loss of serine protease activity: FIG. 5, Cath G 1.33 uM, 0.1M HEPES pH 7.5, 10% DMSO; for kinact/KI: pH 7.5. The class given is biochemical. The protocol: Human leukocyte cathepsin G (1.33 uM) is incubated with compound 8 (133 uM) (a) or compound 10 (13.3 uM) (b) in 0.1M HEPES buffer, pH 7.5, and 10% DMSO. Aliquots were withdrawn at different time intervals and assayed for enzymatic activity using methoxysuccinyl Ala-Ala-Pro-Phe p-nitroanilide.
Human leukocyte cathepsin G (1.48 μM was incubated with inhibitor 5A (1.48 μM in 0.1M HEPES buffer, pH 7.5, and 1% DMSO. Aliquots were withdrawn at different time intervals and assayed for enzymatic activity using methoxysuccinyl Ala-Ala-Pro-Phe p-nitroanilide.
as §1, §3

For the compound `O=C1C(Cc2ccccc2)N(Cc2ccccc2)S(=O)(=O)N1CF` (centres unmarked) [drawing 93 R = benzyl], the “% Proteinase-3 Inhibition” value in series [1] stood at 43%.

With `O=C1c2ccccc2S(=O)(=O)N1CF` [drawing 94], in series [1], the “% Proteinase-3 Inhibition” value was 79%.

As to `CC(C)CC1C(=O)N(CS(=O)(=O)c2ccccc2)S(=O)(=O)N1C` (centres unmarked) [drawing 92 R = methyl], the “% Proteinase-3 Inhibition” value in series [1] was found to be 84%.

Turning to `CC(C)C[C@H]1C(=O)N(CS(=O)(=O)c2ccccc2)S(=O)(=O)N1C` [Compound 3E], in series [2], the “Total Number of Cells Lavaged at 4 Hours, Lymphocytes” value is listed as 6.4 × 10^6; the “Total Number of Cells Lavaged at 4 Hours, Macrophages Monocytes” value is reported as 7.7 × 10^6; the “Total Number of Cells Lavaged at 4 Hours, Neutrophils” value is recorded as 17.9 × 10^6; the “Total Number of Cells Lavaged at 4 Hours, Total Cells” value is 32 × 10^6. In series [2], the “Abdominal Lavage Cell Distribution, Lymphocytes” value turned out to be 20%; the “Abdominal Lavage Cell Distribution, Macrophages Monocytes” value was 24%; the “Abdominal Lavage Cell Distribution, Neutrophils” value came out at 56%; the “effect on neutrophil diapedesis (in words)” value is reported as “substantially reduced neutrophil diapedesis”. The “inhibition of elastase (in words)” value in series [3] is listed as “an elastase inhibitor”. Further, the kinact/KI in series [3] (Table 6) worked out at 7580 M⁻¹ s⁻¹. In addition, the “toxicity (in words)” value in series [4] is “non-toxic”.

As to `O=C1C(Cc2ccccc2)CS(=O)(=O)N1CF` (centres unmarked) [drawing 96], in series [1], the “Proteinase-3 Inhibition (in words)” value is “inactive”.

For the compound `O=C(CSc1ccccc1)OCN1C(=O)c2ccccc2S1(=O)=O`, the “% Proteinase-3 Inhibition” value in series [1] was found to be 66%.

With `CC(C)CC1C(=O)N(CS(=O)(=O)c2ccccc2)S(=O)(=O)N1Cc1ccccc1` (centres unmarked) [drawing 92 R = benzyl], in series [1], the “% Proteinase-3 Inhibition” value was determined as 86%.

As to `CN1C(Cc2ccccc2)C(=O)N(CF)S1(=O)=O` (centres unmarked) [drawing 93 R = methyl], the “% Proteinase-3 Inhibition” value in series [1] turned out to be 55%.

For the compound `CC(C)(C)OC(=O)CN1[C@@H](Cc2ccccc2)C(=O)N(CF)S1(=O)=O` [Compound 4A, (S)-4-Benzyl-5(tert-butoxycarbonylmethyl)-2-fluoromethyl-3-oxo-1,2,5-thiadiazolidine 1.1-dioxide], the “inhibition of Cath G (in words)” value in series [5] was “an inhibitor of Cath G”. In addition, in series [2], the “Total Number of Cells Lavaged at 4 Hours, Lymphocytes” value is 6.5 × 10^6; the “Total Number of Cells Lavaged at 4 Hours, Macrophages Monocytes” value was 6.5 × 10^6; the “Total Number of Cells Lavaged at 4 Hours, Neutrophils” value is recorded as 41.0 × 10^6; the “Total Number of Cells Lavaged at 4 Hours, Total Cells” value is listed as 54 × 10^6. In series [2], the “Abdominal Lavage Cell Distribution, Lymphocytes” value came out at 12%; the “Abdominal Lavage Cell Distribution, Macrophages Monocytes” value is 12%; the “Abdominal Lavage Cell Distribution, Neutrophils” value worked out at 76%; the “effect on neutrophil diapedesis (in words)” value is listed as “did not inhibit neutrophil diapedesis associated with peritonitis”. Further, the inactivation efficiency (kinact/KI) in series [3] (Table 2) was 490 M⁻¹ s⁻¹.

For `O=C1C(Cc2ccccc2)CS(=O)(=O)N1CS(=O)(=O)c1ccccc1` (centres unmarked) [Compound 10, 4-Benzyl-2-(1-phenylsulfonylmethyl)isothiazolidin-3-one 1,1-dioxide], the “time-dependent loss of serine protease activity” value in series [5] (inhibitor 13.3 uM) was “time-dependent loss of serine protease activity”. The inactivation efficiency (kinact/KI) in series [5] (Table 1B) worked out at 960 M⁻¹ s⁻¹. In addition, in series [3] (Table 1B footnote, [I]/[E] ratio of 200, 10 minute incubation period), the HLE % inhibition worked out at 12%.

For `O=C(N[C@H](Cc1ccccc1)C(=O)OCN1C(=O)C(Cc2ccccc2)CS1(=O)=O)OCc1ccccc1` (some centres unmarked) [Compound 3B], the results for the kinact/KI in series [5] (Table 3) and in series [3] (Table 3) were 160 M⁻¹ s⁻¹ and 2300 M⁻¹ s⁻¹, respectively.

In the case of `O=C1C(Cc2ccccc2)CS(=O)(=O)N1C(CF)S(=O)(=O)c1ccccc1` (centres unmarked) [Compound 8, 4-Benzyl-2-(2-fluoro-1-phenylsulfonylethyl) isothiazolidin-3-one 1,1-dioxide], the “time-dependent loss of serine protease activity” value in series [5] (inhibitor 133 uM) is listed as “time-dependent loss of serine protease activity”. For the same compound, the results for the second-order inactivation constant (kinact/KI) in series [5] (Table 1B) and in series [3] (Table 1B) were 420 M⁻¹ s⁻¹ and 50 M⁻¹ s⁻¹, respectively.

Regarding `CC(C)(C)OC(=O)N[C@H](Cc1ccccc1)C(=O)OCN1C(=O)C(Cc2ccccc2)CS1(=O)=O` (some centres unmarked) [Compound 4B], the inactivation efficiency (kinact/KI) in series [5] (Table 3) came to 260 M⁻¹ s⁻¹; in series [3] (Table 3), 1140 M⁻¹ s⁻¹.

Consider `CC(C)(C)OC(=O)CN1[C@@H](Cc2ccccc2)C(=O)N(CF)S1(=O)=O` [drawing 93 R = CH2 COOt-BOC], for which, in series [1], the “% Proteinase-3 Inhibition” value is given as 33%.

As for `O=C(OCN1C(=O)C(Cc2ccccc2)CS1(=O)=O)[C@@H]1CCCN1C(=O)OCc1ccccc1` (some centres unmarked) [Compound 5B], the kinact/KI was 7700 M⁻¹ s⁻¹ in series [5] (Table 3) and 220 M⁻¹ s⁻¹ in series [3] (Table 3).

For the compound `C[C@@H](NC(=O)OC(C)(C)C)C(=O)OCN1C(=O)C(Cc2ccccc2)CS1(=O)=O` (some centres unmarked) [Compound 10B], the kinact/KI was 560 M⁻¹ s⁻¹ in series [5] (Table 3) and 310 M⁻¹ s⁻¹ in series [3] (Table 3).

Turning to `CC(C)Cc1ccc(C(C)C(=O)OCN2C(=O)C(Cc3ccccc3)CS2(=O)=O)cc1` (centres unmarked) [Compound 1], the figures for the kinact/KI in series [5] (Table 1A) and in series [3] (Table 1A) were 240 M⁻¹ s⁻¹ and 160 M⁻¹ s⁻¹, respectively.

With `O=C(OCN1C(=O)C(Cc2ccccc2)CS1(=O)=O)[C@H]1CCCN1C(=O)OCc1ccccc1` (some centres unmarked) [Compound 7B], the kinact/KI came to 360 M⁻¹ s⁻¹ in series [5] (Table 3) and 520 M⁻¹ s⁻¹ in series [3] (Table 3).
